Experiment [1] relates to I2.1 FADD–/– human Jurkat cells. Put plainly: IncuCyte necroptosis assay in I2.1 cells. The following applies: for EC50: read-out: EC50 (95% CI), necroptosis inhibition; for EC50 values of well-characterized necroptosis inhibitors (assay validation), in words: Figure S1e.
Procedure: A cell-based assay was established to monitor necroptosis in I2.1 cells using the IncuCyte S3 live cell microscopy platform (Figure S1a). Necroptosis was induced by treatment with TNF, and Sytox Green was used to monitor membrane permeabilization over time as an indicator of progressive necroptotic cell death (Figure S1b–d), allowing determination of the EC50 of candidate necroptosis inhibitors.
I2.1 cells were seeded in a sterile 96-well plate (Greiner) at 20,000 cells per well and incubated at 37 °C overnight. The cells were treated with a final concentration of 600 pM TNF, 1 μM Sytox Green, and compounds in a dose-dependent manner. Wells containing TNF and Sytox Green served as positive control. Wells containing DMSO and Sytox Green served as a negative control. The plate was placed into an IncuCyte S3 Live Cell Analysis System (Sartorius) and readings for phase and green fluorescence were taken every hour for 24 h, with 4 images per well. The images were analyzed with IncuCyte 2021C software and the Green Integrated Intensity Per Image/Phase Area Per Image (GCU × μm^2/image/μm^2/image or GP) was exported. The background at t = 0 h was subtracted, and the linear slope (t = 3–7 h) was calculated by plotting GP against time. The percent inhibition of necroptosis was determined by normalizing to the positive and negative controls and graphing against the [compound]. EC50 values were determined using Prism 10 for each replicate, which were then used to calculate the geometric mean EC50 and associated 95% CIs.
I2.1 cells in a 96-well plate were treated with TNF to induce necroptosis, a dilution series of the candidate necroptosis inhibitor and Sytox Green to monitor cell death. Plates were placed in the IncuCyte® and imaged every hour for 24 h. Cell death was measured over time and used to determine the proportion of necroptotic cells compared to those without necroptosis induction or not treated with an inhibitor. The linear portion of the graph was used to determine an initial rate for calculation of the EC50. TNF with Sytox Green and Sytox Green alone were used as positive and negative controls, respectively. […] EC50 values are expressed as the geometric mean with a 95% confidence interval (CI) of at least three biological replicates.
Experiment [2] deals with RIPK1 Ser166 phosphorylation. The experiment is described as follows: Western blot of RIPK1 Ser166 phosphorylation in I2.1 cells. The class given is cell-based, human. The following applies: for phosphorylation of RIPK1 Ser166 after TNF: prior treatment with 10 μM compound. Here is the method: All compound treatments were performed with a preprepared 1000× stock of the desired concentration in DMSO and added directly to the relevant plate, with a final concentration of 0.1% DMSO on the cells. TNF (final concentration 575 pM) was added to induce necroptosis, the cells incubated for 4 h and harvested.
(§1) Cells were transferred to a microcentrifuge tube and centrifuged at 200g for 5 min, and media were removed. Cells were washed with PBS and lysed with 100 μL of lysis buffer (radioimmunoprecipitation assay lysis buffer, Sigma-Aldrich, R0278) supplemented with 1× phosphatase inhibitor cocktail 2 (Sigma, P5726) and 1× complete EDTA-free protease inhibitor cocktail (Sigma, […])) on ice for 30 min. The lysate was collected by centrifugation at 17,000g, 4 °C for 5 min, and the lysate was transferred to a new microcentrifuge tube. Protein concentration was determined using the DC Protein Assay (Bio-Rad) in a 96-well plate as per the manufacturer’s instructions and subsequently adjusted to 1 mg mL^–1 using lysis buffer. Samples were prepared by adding 4 μL of 4× loading buffer (Biorad, 161-0747) containing β-mercaptoethanol to 12 μL of protein sample and boiling at 95 °C for 10 min. 14 μL of each sample was loaded onto a 4–15% Mini-PROTEAN TGX precast gel (Biorad, 456-1086) and run in 1× running buffer (0.25 M Tris, 0.2 M glycine, 0.1% (w/v) SDS) for 1.15 h at 130 V. Either 2 μL of precision plus protein all blue prestained protein standards (Bio-Rad, 1610373) or precision plus protein dual color standards (Bio-Rad, 1610374) was used in at least one well.
Proteins were transferred onto a nitrocellulose membrane (GE Healthcare) using the Trans-Blot Turbo Transfer System (Biorad, 1704150) at 2.5 A and 25 V for 7 min. The membrane was stained with Ponceau S to confirm protein transfer prior to blocking with 5% (w/v) nonfat dried skimmed milk in TBS-T (1× Tris-buffered saline, 0.1% (v/v) Tween-20) at rt for 1 h. Staining with the desired primary antibody in 5% (w/v) nonfat dried skimmed milk in TBS-T was performed overnight at 4 °C. The blot was washed with TBS-T at rt (3 × 5 min) and stained with secondary antibody in 5% (w/v) nonfat dried skimmed milk in TBS-T for 1 h at rt. The blot was washed with TBS-T at rt (3 × 5 min), visualized with Immobilon Crescendo Western HRP substrate, and imaged using ImageQuant LAS-4000 Imaging System (Fujifilm), and the contrast normalized in Fiji.
A general note: Immunoblotting shows a protein as a band on a membrane.

Another experiment has as its target T1, RIPK1 (Homo sapiens, UniProt Q13546).
T1 construct: Following incubation of I2.1 cells with the probe, irradiation to induce photocrosslinking; endogenous in cells; host or cells: I2.1 FADD-deficient Jurkat T cells (ATCC, CRL-2572)
T1 sequence (Q13546 1-671): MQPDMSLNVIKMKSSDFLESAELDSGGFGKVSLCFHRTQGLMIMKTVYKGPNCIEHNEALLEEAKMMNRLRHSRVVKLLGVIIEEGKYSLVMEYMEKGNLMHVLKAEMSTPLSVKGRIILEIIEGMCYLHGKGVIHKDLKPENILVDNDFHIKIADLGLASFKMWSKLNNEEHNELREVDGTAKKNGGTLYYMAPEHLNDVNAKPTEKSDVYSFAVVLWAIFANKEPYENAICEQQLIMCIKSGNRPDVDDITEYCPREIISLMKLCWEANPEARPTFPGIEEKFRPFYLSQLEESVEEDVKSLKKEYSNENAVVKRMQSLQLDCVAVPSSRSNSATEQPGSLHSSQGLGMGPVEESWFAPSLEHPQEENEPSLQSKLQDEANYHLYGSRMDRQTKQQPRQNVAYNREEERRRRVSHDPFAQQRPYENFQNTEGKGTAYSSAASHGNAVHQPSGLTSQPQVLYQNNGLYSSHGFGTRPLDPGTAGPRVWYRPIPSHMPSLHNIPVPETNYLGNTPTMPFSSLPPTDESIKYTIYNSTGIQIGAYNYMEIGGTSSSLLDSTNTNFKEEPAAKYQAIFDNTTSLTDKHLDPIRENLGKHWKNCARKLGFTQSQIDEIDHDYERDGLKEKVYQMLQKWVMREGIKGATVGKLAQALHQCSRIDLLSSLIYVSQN
The experiment is described as follows: Streptavidin mass shift assay (photoaffinity labeling, target engagement) in I2.1 cells. In kind it is cell-based. The following applies: particularly after 5 min of UV irradiation.

The next experiment deals with Aurora kinase B (Homo sapiens, UniProt Q96GD4). Put plainly: Kinase panel screen (SelectScreen, Z-lyte). The following applies: single concentration of 1 µM, % inhibition, Figure S2c. The class given is biochemical. Here is the method: (a) Western blot analysis of RIPK1, RIPK3 and MLKL phosphorylation in HT-29 cells with treatment of necroptosis inhibitors and the 7PQ series. Results are representative of two experiments. […] Results are representative of two experiments. (c) Kinase activity panel screen. Compounds were screened at a single concentration of 1 µM at Thermofisher.
Sequence of Aurora kinase B (Q96GD4 whole entry): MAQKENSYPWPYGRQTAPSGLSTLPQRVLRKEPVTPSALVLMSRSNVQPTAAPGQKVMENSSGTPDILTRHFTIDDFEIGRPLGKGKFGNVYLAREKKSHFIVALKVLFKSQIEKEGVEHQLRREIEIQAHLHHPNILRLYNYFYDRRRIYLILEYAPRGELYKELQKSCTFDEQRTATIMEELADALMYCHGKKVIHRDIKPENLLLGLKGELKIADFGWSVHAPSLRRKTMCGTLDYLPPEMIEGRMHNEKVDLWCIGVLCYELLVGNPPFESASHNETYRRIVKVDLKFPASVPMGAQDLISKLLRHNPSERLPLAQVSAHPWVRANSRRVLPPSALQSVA
The kinase data was provided by Thermofisher SelectScreen Biochemical Kinase Profiling service using the Z-lyte technology. Each compound was profiled at […] against a representative panel of 25 kinases.

In the next experiment the test system is C57BL/6J mice. The experiment is described as follows: TNF-induced SIRS murine model. As to conditions: 5 mg/kg i.v. 15 min before TNF 0.5 mg/kg i.v.
Experiment [3] relates to RIPK1, RIPK3 and MLKL phosphorylation. Put plainly: Western blot of RIPK1, RIPK3 and MLKL phosphorylation in HT-29 cells. The class given is cell-based, human. As to conditions: TNF, birinapant and Z-VAD-FMK. The method, then:
All compound treatments were performed with a preprepared 1000× stock of the desired concentration and added directly to the relevant plate with a final concentration of 0.1% DMSO on the cells. A combination of TNF (final concentration of 1.2 nM), Birinapant (final concentration 100 nM), and Z-VAD-FMK (final concentration 20 μM) was added to induce necroptosis, the cells incubated for 7 h, and harvested.
as §1, with “14 μL of each sample was loaded onto a 4–15% Mini-PROTEAN TGX precast gel (Biorad, 456-1086) and run in 1× running buffer (0.25 M Tris, 0.2 M glycine, 0.1% (w/v) SDS) for 1.15 h at 130 V. Either 2 μL of precision plus protein all blue prestained protein standards (Bio-Rad, 1610373) or precision plus protein dual color standards (Bio-Rad, 1610374) was used in at least one well.” left out

A further experiment relates to HT-29 cells. The experiment is described as follows: IncuCyte necroptosis assay in HT-29 cells. In kind it is cell-based, human. The following applies: TNF, birinapant and Z-VAD-FMK induced; Figure S1f. From the text: Wells containing TSZ served as a positive control.
The mark [4] stands for this setting: TNF-induced necroptosis, I2.1 cells, Sytox Green, geometric mean with 95% CI, at least three biological replicates.

“Also recorded” adds a separate entry of the source. Counter-ions that a name gives are not always drawn. Like-named read-outs stand apart in the source and are kept apart here.

Results on 18 compounds are retold here after publication PMC12281487, “Discovery and Validation of a Novel Class of Necroptosis Inhibitors Targeting RIPK1” (ACS Chemical Biology, 2025).

The term EC50 denotes the concentration giving half of the maximal effect.

Procedure for C57BL/6J mice: Male C57BL/6J mice of 18–25 g were used at the age of 6–8 weeks. Three animals were included in each experimental group. All animal experiments were carried out with the permission of the local animal ethical committee in accordance with the EU Directive (2010/63/EU), Portuguese laws (DL113/2013, 2880/2015, 260/2016), and all relevant legislations. Animals received humane care in a temperature-controlled environment with a 12 h light–dark cycle and ad libitum access to pelleted chow and water, complying with the Institute’s guidelines, and as outlined in the “Guide for the Care and Use of Laboratory Animals” prepared by the National Academy of Sciences and published by the National Institutes of Health (NIH publication 86-23 revised 1985). […] TNF was diluted in sterile PBS. […] All injections were administered intravenously (i.v.).

Turning to `CC(C)(C)OC(=O)N1CC[C@H](CNC(=O)c2ccc(-c3ccc4cccnc4c3)cc2)C1` [compound 4, tert-Butyl (R)-3-((4-(Quinolin-7-yl)benzamido)methyl)pyrrolidine-1-carboxylate], the EC50 in experiment [1] (Homo sapiens, Jurkat) was determined as 3 µM.
Consider `C#CCN(CCC1(C)N=N1)S(=O)(=O)c1ccc(-c2ccc3cccnc3c2)cc1` [7PQYnD, N-(2-(3-Methyl-3H-diazirin-3-yl)ethyl)-N-(prop-2-yn-1-yl)-4-(quinolin-7-yl)benzenesulfonamide], for which, in experiment [2], the “phosphorylation of RIPK1 Ser166 after TNF” value (shortened to “phosphorylation … after TNF”) is “blocked”. Further, the “engagement of RIPK1 by the probe (streptavidin-shifted band)” value at RIPK1 is recorded as “Dose-dependent engagement of RIPK1”. Moreover, the EC50 in experiment [1] (Homo sapiens, Jurkat) was 8.9 µM. The “fold less potent than the parent compounds AZ’902 and AZ’320 (necroptosis inhibition)” value in experiment [1] (I2.1 cells) is 2–5 fold.
Consider `CN(C[C@H]1CCNC1)S(=O)(=O)c1ccc(-c2ccc3cccnc3c2)cc1` [compound 2, (S)-N-Methyl-N-(pyrrolidin-3-ylmethyl)-4-(quinolin-7-yl)benzenesulfonamide·HCl], for which the EC50 in experiment [1] (Homo sapiens, Jurkat) is 1.7 µM.
`O=C(c1ccc(-c2ccc3ccccc3n2)cc1)N1CCOCC1` [compound 11, Morpholino(4-(quinolin-2-yl)phenyl)methanone]: the “EC50 (95% CI), necroptosis inhibition” value in experiment [1] (setting [4]) is “Inactive”.
On to `CC(=O)N1CC[C@@H](CN(C)S(=O)(=O)c2ccc(-c3ccc4cccnc4c3)cc2)C1` [compound 1, (R)-N-((1-Acetylpyrrolidin-3-yl)methyl)-N-methyl-4-(quinolin-7-yl)benzenesulfonamide], for which the EC50 in experiment [1] (Homo sapiens, Jurkat) came out at 1 µM.
Regarding “tert-Butyl(S)-3-(((N-methyl-4-(quinolin-7-yl)phenyl)sulfonamido)methyl)pyrrolidine-1-carboxylate [compound 3]”, the EC50 in experiment [1] (setting [4]) stood at 2.5 µM.
As to `CN1C(=O)NC(Cc2c[nH]c3c(Cl)cccc23)C1=O` (centres unmarked) [Nec-1s, reference compound], in experiment [1] (I2.1 cells), the “EC50 values of well-characterized necroptosis inhibitors (assay validation), in words” value is “consistent with those previously reported”.
As for `O=C(c1ccc(-c2ccc3ncccc3c2)cc1)N1CCOCC1` [compound 9, Morpholino(4-(quinolin-6-yl)phenyl)methanone], the “EC50 (95% CI), necroptosis inhibition” value in experiment [1] (setting [4]) is “Inactive”.
Regarding `CS(=O)(=O)CC1CN(S(=O)(=O)c2ccc(-c3ccc4cccnc4c3)cc2)C1` [AZ’320, 7-(4-((3-((Methylsulfonyl)methyl)azetidin-1-yl)sulfonyl)phenyl)quinoline], the “off-target activity in a panel of 25 kinases” value at Aurora kinase B was “off–target activity observed primarily against Aurora kinase B”. The “dose dependence of the effect on phosphorylation of RIPK1 Ser166” value in experiment [2] is recorded as “dose dependent”. In addition, the EC50 in experiment [1] (Homo sapiens, Jurkat) was 4.9 µM. Also, the “effects on temperature and body weight after TNF” value in the experiment on C57BL/6J mice is “rescuing effects on temperature and body weight”. Besides, the “protection from TNF-induced mortality (survival)” value with C57BL/6J mice (3 mice per group) is reported as “completely reverted the toxic effects induced by TNF; also recorded: preventing mortality”.
For `O=C(c1ccc(-c2ccc3cnccc3c2)cc1)N1CCOCC1` [compound 8, (4-(Isoquinolin-6-yl)phenyl)(morpholino)methanone], in experiment [1] (setting [4]), the “EC50 (95% CI), necroptosis inhibition” value is “Inactive”.
Consider `CC(C)S(=O)(=O)c1ccc2nccc(Nc3ccc4scnc4c3)c2c1` [GSK’872, reference compound], for which, in experiment [2], the “phosphorylation … after TNF” value is listed as “no inhibition”. For the same compound, the “EC50 values of well-characterized necroptosis inhibitors (assay validation), in words” value in experiment [1] (I2.1 cells) is recorded as “consistent with those previously reported”. Also, the “phosphorylation of necrosome components (RIPK1, RIPK3, MLKL)” value in experiment [3] is “inhibited phosphorylation of RIPK3 and MLKL but not RIPK1”.
As for `O=C(c1ccc(-c2ccc3ccncc3c2)cc1)N1CCOCC1` [compound 7, (4-(Isoquinolin-7-yl)phenyl)(morpholino)methanone], the “EC50 (95% CI), necroptosis inhibition” value in experiment [1] (setting [4]) is “Inactive”.
Take `CC(=O)N1CC[C@H](CN(C)S(=O)(=O)c2ccc(-c3ccc4cccnc4c3)cc2)C1` [AZ’902, (S)-N-((1-Acetylpyrrolidin-3-yl)methyl)-N-methyl-4-(quinolin-7-yl)benzenesulfonamide]: the “off-target activity in a panel of 25 kinases” value on Aurora kinase B is “off–target activity observed primarily against Aurora kinase B”. For the same compound, in experiment [2], the “dose dependence of the effect on phosphorylation of RIPK1 Ser166” value is on record as “dose dependent” and the “phosphorylation … after TNF” value is “blocked”. Moreover, the EC50 in experiment [1] (Homo sapiens, Jurkat) turned out to be 1.6 µM. For the same compound, in the experiment with HT-29 cells, the “necroptosis inhibition activity in HT-29 cells” value was “confirmed”.
For `O=C(c1ccc(-c2ccc3nccnc3c2)cc1)N1CCOCC1` [compound 12, Morpholino(4-(quinoxalin-6-yl)phenyl)methanone], in experiment [1] (setting [4]), the “EC50 (95% CI), necroptosis inhibition” value is reported as “Inactive; also recorded: loss of activity”.
With `O=C(c1ccc(-c2ccc3cccnc3c2)cc1)N1CCOCC1` [compound 6, Morpholino(4-(quinolin-7-yl)phenyl)methanone], the EC50 in experiment [1] (Homo sapiens, Jurkat) turned out to be 23 µM.
As for `COc1nccnc1NS(=O)(=O)c1ccc(NC(=O)/C=C/c2ccc([N+](=O)[O-])s2)cc1` [NSA, Necrosulfonamide, reference compound], the “EC50 values of well-characterized necroptosis inhibitors (assay validation), in words” value in experiment [1] (I2.1 cells) was “consistent with those previously reported”. For the same compound, the “phosphorylation of necrosome components (RIPK1, RIPK3, MLKL)” value in experiment [3] was “retained phosphorylation of all components of the necrosome”.
`O=C(c1ccc(-c2cnc3ccccc3c2)cc1)N1CCOCC1` [compound 10, Morpholino(4-(quinolin-3-yl)phenyl)methanone]: the “EC50 (95% CI), necroptosis inhibition” value in experiment [1] (setting [4]) is reported as “Inactive”.
As to `CC(C)(C)OC(=O)N1CC[C@@H](NC(=O)c2ccc(-c3ccc4cccnc4c3)cc2)C1` [compound 5, tert-Butyl (R)-3-(4-(Quinolin-7-yl)benzamido)pyrrolidine-1-carboxylate], the EC50 in experiment [1] (Homo sapiens, Jurkat) came to 6.7 µM.
